Laboratory results taken from US20170081338A1, “SUBSTITUTED HETEROARYL COMPOUNDS AND METHODS OF USE” (Sunshine Lake Pharma Co., Ltd., priority 2015, published 2017).

Experiments:
[1] = target: T1, Aurora-A (h) (Homo sapiens, UniProt O14965); assay: Aurora-A (h) kinase assay; format: biochemical
T1 construct: purchased Millipore UK Ltd (contract assay service)
T1 sequence (O14965 1-403): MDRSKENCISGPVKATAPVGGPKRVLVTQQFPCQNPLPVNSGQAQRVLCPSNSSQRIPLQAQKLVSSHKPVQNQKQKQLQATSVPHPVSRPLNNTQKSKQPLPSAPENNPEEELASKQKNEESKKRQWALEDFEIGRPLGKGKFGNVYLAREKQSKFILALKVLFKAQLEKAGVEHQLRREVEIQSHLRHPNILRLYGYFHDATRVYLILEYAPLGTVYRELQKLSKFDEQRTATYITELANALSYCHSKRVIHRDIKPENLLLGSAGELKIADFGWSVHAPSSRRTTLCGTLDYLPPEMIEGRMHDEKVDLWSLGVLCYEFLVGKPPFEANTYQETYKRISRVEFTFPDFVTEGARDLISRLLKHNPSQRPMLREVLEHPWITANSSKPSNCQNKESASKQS
Experimental: (§1) The above assay procedure can be used to determine the IC50 for inhibition and/or the inhibition constant, Ki. The IC50 is defined as the concentration of compound required to reduce the enzyme activity by 50% under the condition of the assay. The IC50 value is estimated by preparing a 10 point curve using a 1/2 log dilution series (for example, a typical curve may be prepared using the following compound concentrations: 3 μM, 1 μM, 0.3 μM, 0.1 μM, 0.03 μM, 0.01 μM, 0.003 μM, 0.001 μM, 0.0003 μM and 0 μM).
(§2) Aurora-A (h) is incubated with 8 mM MOPS pH 7.0, 0.2 mM EDTA, 200 μM LRRASLG (Kemptide), 10 mM MgAcetate and [γ-^33P-ATP] (specific activity approx. 500 cpm/pmol, concentration as required). The reaction is initiated by the addition of the MgATP mix. After incubation for 40 minutes at room temperature, the reaction is stopped by the addition of 3% phosphoric acid solution. 10 μL of the reaction is then spotted onto a P30 filtermat and washed three times for 5 minutes in 75 mM phosphoric acid and once in methanol prior to drying and scintillation counting.
(§3) The kinase assays described herein were performed at Millipore UK Ltd, Dundee Technology Park, Dundee DD2 1SW, UK.

[2] = Pharmacokinetics after intravenous and oral administration in rats; format: in vivo; conditions: for Clearance (CL) after iv dosing / AUC(0-t) / half-life / Vd: dose 1 mg/kg, iv dosing; for F: oral bioavailability; for AUC(0-t) / half-life / Vd: rat, plasma; for Vd: read-out: Vss
Procedure, shortened: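 Compounds dosed IV at 0.5, 1 or 2 mg/kg and orally at 0.5, 1, 5 or 10 mg/kg in rats, as solution, suspension or capsule formulations. Serial blood sampled out to 24 h and plasma stored frozen. Plasma levels quantified by LC/MS/MS in ESI MRM mode.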

[3] = target: T2, Aurora-B (h) (Homo sapiens, UniProt Q96GD4); assay: Aurora-B (h) kinase assay; format: biochemical
T2 construct: purchased Millipore UK Ltd (contract assay service)
T2 sequence (Q96GD4 whole entry): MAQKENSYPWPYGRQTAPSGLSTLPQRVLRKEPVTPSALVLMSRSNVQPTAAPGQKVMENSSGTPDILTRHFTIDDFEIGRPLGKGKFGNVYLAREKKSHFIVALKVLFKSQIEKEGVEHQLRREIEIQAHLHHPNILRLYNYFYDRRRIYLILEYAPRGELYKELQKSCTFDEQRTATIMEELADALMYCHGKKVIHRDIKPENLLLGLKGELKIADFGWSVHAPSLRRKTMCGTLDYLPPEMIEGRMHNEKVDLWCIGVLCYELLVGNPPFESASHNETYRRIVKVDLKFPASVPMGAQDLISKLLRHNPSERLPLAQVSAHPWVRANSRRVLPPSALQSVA
Experimental: (§4) Kinase assays can be performed by measurement of incorporation of γ-^33P ATP into immobilized myelin basic protein (MBP). High binding white 384 well plates (Greiner) are coated with MBP (Sigma #M-1891) by incubation of 60 μL/well of 20 μg/mL MBP in Tris-buffered saline (TBS; 50 mM Tris pH 8.0, 138 mM NaCl, 2.7 mM KCl) for 24 h at 4° C. Plates are washed 3× with 100 μL TBS. Kinase reactions are carried out in a total volume of 34 μL in kinase buffer (according to the need to make, for example, 5 mM Hepes pH 7.6, 15 mM NaCl, 0.01% bovine gamma globulin (Sigma #1-5506), 10 mM MgCl2, 1 mM DTT, 0.02% TritonX-100). Compound dilutions are performed in DMSO and added to assay wells to a final DMSO concentration of 1%. Each data point is measured in duplicate, and at least two duplicate assays are performed for each individual compound determination. Enzyme is added to final concentrations of 10 nM or 20 nM, for example. A mixture of unlabeled ATP and γ-^33P ATP is added to start the reaction (2×10^6 cpm of γ-^33P ATP per well (3000 Ci/mmole) and 10 μM unlabeled ATP, typically. The reactions are carried out for 1 h at room temperature with shaking. Plates are washed 7× with TBS, followed by the addition of 50 µL/well scintillation fluid (Wallac). Plates are read using a Wallac Trilux counter. This is only one format of such assays; various other formats are possible, as known to one skilled in the art.
as §1
Aurora-B (h) is incubated with 8 mM MOPS pH 7.0, 0.2 mM EDTA, 30 μM AKRRRLSSLRA, 10 mM MgAcetate and [γ-^33PATP] (specific activity approx. 500 cpm/pmol, concentration as required). The reaction is initiated by the addition of the MgATP mix. After incubation for 40 minutes at room temperature, the reaction is stopped by the addition of a 3% phosphoric acid solution. 10 μL of the reaction is then spotted onto a P30 filtermat and washed three times for 5 minutes in 75 mM phosphoric acid and once in methanol prior to drying and scintillation counting.
as §3

[4] = target: T3, JAK1 (h) (Homo sapiens, UniProt P23458); assay: JAK1 (h) kinase assay; format: biochemical
T3 construct: purchased Millipore UK Ltd (contract assay service)
T3 sequence (P23458 whole entry): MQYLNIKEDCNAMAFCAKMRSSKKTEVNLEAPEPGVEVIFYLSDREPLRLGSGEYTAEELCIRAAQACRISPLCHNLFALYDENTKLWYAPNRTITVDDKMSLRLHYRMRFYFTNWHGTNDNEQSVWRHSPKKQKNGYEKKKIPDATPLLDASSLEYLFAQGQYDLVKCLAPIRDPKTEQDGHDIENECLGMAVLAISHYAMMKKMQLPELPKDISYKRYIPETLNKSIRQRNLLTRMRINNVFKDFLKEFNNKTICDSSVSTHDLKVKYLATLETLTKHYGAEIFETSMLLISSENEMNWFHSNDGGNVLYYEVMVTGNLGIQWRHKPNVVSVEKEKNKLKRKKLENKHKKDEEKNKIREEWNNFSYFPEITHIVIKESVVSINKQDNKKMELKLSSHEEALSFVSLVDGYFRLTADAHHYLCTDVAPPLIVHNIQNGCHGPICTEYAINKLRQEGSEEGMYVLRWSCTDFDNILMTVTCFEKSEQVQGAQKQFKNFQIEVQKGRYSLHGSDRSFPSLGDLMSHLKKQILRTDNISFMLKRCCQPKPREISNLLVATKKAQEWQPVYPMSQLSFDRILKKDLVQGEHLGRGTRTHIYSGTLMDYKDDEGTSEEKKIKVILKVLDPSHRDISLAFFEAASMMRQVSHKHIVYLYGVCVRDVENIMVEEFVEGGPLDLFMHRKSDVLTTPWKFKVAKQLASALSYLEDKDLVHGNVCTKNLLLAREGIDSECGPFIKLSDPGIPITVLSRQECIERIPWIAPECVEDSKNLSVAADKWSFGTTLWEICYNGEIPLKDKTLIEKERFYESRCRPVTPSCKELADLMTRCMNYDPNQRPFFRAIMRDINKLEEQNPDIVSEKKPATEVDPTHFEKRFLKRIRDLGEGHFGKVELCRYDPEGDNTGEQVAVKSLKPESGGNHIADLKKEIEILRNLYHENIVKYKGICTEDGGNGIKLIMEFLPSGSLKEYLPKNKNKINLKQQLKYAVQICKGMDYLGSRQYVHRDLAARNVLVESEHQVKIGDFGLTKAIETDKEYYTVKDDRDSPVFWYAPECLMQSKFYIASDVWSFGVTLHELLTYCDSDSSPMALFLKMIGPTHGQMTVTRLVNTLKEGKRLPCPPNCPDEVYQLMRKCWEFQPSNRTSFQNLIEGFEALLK
Experimental: as §4, §1
as §2, with “JAK1” for “Aurora-A”, “20” for “8”, “Tris/HCl” for “MOPS”, “7.5,” for “7.0,”, “500” for “200”, “GEEPLYWSFPAKKK,” for “LRRASLG (Kemptide),”
as §3

| Compound | IC50 [1] [µM] | Clearance (CL) after iv dosing [2] [mL/min/kg] | F [2] [%] | AUC(0-t) [2] [ng·h/mL] | half-life [2] [min] | Vd [2] [L/kg] | IC50 [3] [µM] | IC50 [4] [µM] |
| --- | --- | --- | --- | --- | --- | --- | --- | --- |
| Cn1cc(Nc2ncc(Cl)c(N[C@@H]3COC4C3OC[C@@H]4NS(=O)(=O)CC(C)(C)C)n2)cn1 (stereo partly drawn) [Ex. 30, N-((3S,6R)-6-((5-chloro-2-((1-methyl-1H-pyrazol-4-yl)amino)pyrimidin-4-yl)amino)hexahydrofuro[3,2-b]furan-3-yl)-2,2-dimethylpropane-1-sulfonamide] | 0.017 | 24.2 | 67.4 | 696 | 37.8 | 0.82 | 0.008 | – |
| Cn1cc(Nc2ncc(Cl)c(N[C@@H]3COC4C3OC[C@@H]4NS(=O)(=O)CC3CCCO3)n2)cn1 (stereo partly drawn) [Ex. 34, N-((3S,6R)-6-((5-chloro-2-((1-methyl-1H-pyrazol-4-yl)amino)pyrimidin-4-yl)amino)hexahydrofuro[3,2-b]furan-3-yl)-1-(tetrahydrofuran-2-yl)methanesulfonamide] | 0.024 | – | 28.9 | 1540 | 37.8 | 1.23 | 0.021 | – |
| Cn1cc(Nc2ncc(Cl)c(N[C@@H]3COC4C3OC[C@@H]4NS(=O)(=O)CC3CCC3)n2)cn1 (stereo partly drawn) [Ex. 31, N-((3S,6R)-6-((5-chloro-2-((1-methyl-1H-pyrazol-4-yl)amino)pyrimidin-4-yl)amino)hexahydrofuro[3,2-b]furan-3-yl)-1-cyclobutylmethanesulfonamide] | 0.012 | 18.8 | 88.1 | 947 | 37.2 | 0.71 | 0.018 | – |
| Cn1cc(Nc2ncc(Cl)c(N[C@@H]3COC4C3OC[C@@H]4NS(=O)(=O)CC3CCCC3)n2)cn1 (stereo partly drawn) [Ex. 21, N-((3S,6R)-6-((5-chloro-2-((1-methyl-1H-pyrazol-4-yl)amino)pyrimidin-4-yl)amino)hexahydrofuro[3,2-b]furan-3-yl)-1-cyclopentylmethanesulfonamide] | 0.002 | 24.8 | 63.7 | 680 | 18 | 0.69 | 0.006 | 0.024 |
| CCC(C)CS(=O)(=O)N[C@H]1COC2C1OC[C@H]2Nc1nc(Nc2cnn(C)c2)ncc1Cl (stereo partly drawn) [Ex. 33, N-((3S,6R)-6-((5-chloro-2-((1-methyl-1H-pyrazol-4-yl)amino)pyrimidin-4-yl)amino)hexahydrofuro[3,2-b]furan-3-yl)-2-methylbutane-1-sulfonamide] | 0.018 | 23.2 | 53.6 | 725 | 17.4 | 0.57 | 0.025 | – |
